PMC6979384, “Characterization of the plant homeodomain (PHD) reader family for their histone tail interactions” (Epigenetics & Chromatin, 2020)
Blank lines part the entries; values can stand above or below the substance they belong to. Where no end group is shown, it is not given here.

Tests used:
Assay in all cases: Histone peptide microarray
Format in all cases: binding, human
[1] = test system: TRIM66 (PB); conditions: TRIM66 (PB)
Summary of the method: (§1)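 Recombinant GST-PHD protein at 0.5 μM; 293-member modified histone peptide array; signals averaged from four repeats ± SD.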

[2] = test system: PHF2
Summary of the method: as §1

[3] = test system: PHF23
Summary of the method: as §1

[4] = test system: KDM4C (TTP); conditions: KDM4C (TTP)
Summary of the method: as §1

[5] = test system: TAF3
Summary of the method: as §1

[6] = test system: PHF21A; conditions: PHF21A
Summary of the method: as §1

[7] = test system: PHF8
Summary of the method: as §1

[8] = test system: KDM7A; conditions: KDM7A
Summary of the method: as §1

[9] = test system: MORC3 (CW); conditions: MORC3 (CW)
Summary of the method: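 GST-tagged PHD finger readers were expressed, purified and applied at 0.5 μM to a microarray of 293 synthetic histone peptides carrying single or combinatorial PTMs, using an optimized protocol. Binding signals are averages with standard deviation from 4 replicates.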

[10] = test system: KDM5A (1); conditions: KDM5A (1)
Summary of the method: as §1

[11] = test system: CHD5 (PCC); conditions: CHD5 (PCC)
Summary of the method: as §1

[12] = test system: SP140L; conditions: SP140L
Summary of the method: as §1

[13] = test system: BAZ2B; conditions: BAZ2B
Summary of the method: as §1

[14] = test system: BPTF (PB); conditions: BPTF (PB)
Summary of the method: as §1

[15] = test system: ING3
Summary of the method: as §1

[16] = test system: ING4
Summary of the method: as §1

[17] = test system: RAG2
Summary of the method: as §1

[18] = test system: CHD4 (PPCC); conditions: CHD4 (PPCC)
Summary of the method: as §1

[19] = test system: MLL5
Summary of the method: as §1

[20] = test system: ING1
Summary of the method: as §1

[21] = test system: ING5
Summary of the method: as §1

[22] = test system: DPF2 (PPC2W2); conditions: DPF2 (PPC2W2)
Summary of the method: as §1

[23] = test system: KDM5B (1); conditions: KDM5B (1)
Summary of the method: as §1

[24] = test system: DIDO1
Summary of the method: as §1

[25] = test system: ING2
Summary of the method: as §1

[26] = test system: AIRE (PP); conditions: AIRE (PP)
Summary of the method: as §1

[27] = test system: KDM5A (3); conditions: KDM5A (3)
Summary of the method: as §1

[28] = test system: PHRF1 (RP); conditions: PHRF1 (RP)
Summary of the method: as §1

[29] = test system: CHD5 (PPCC); conditions: CHD5 (PPCC)
Summary of the method: as §1

[30] = test system: PHF13
Summary of the method: as §1

[31] = test system: KDM5B (3); conditions: KDM5B (3)
Summary of the method: as §1

[32] = sheet "Array Heatmap", each array performed twice, total n = 4
[33] = GST-tagged, arrays performed twice, n of 4

Substance: H3K4me3 (1-11): H3 1-11
Array Heatmap value (peptide array signal) [1, 32]: 0.5622 | Array Heatmap value (peptide array signal) ([2]; PHF2, sheet "Array Heatmap", each array performed twice, total n = 4): 0.5693 | Array Heatmap value (peptide array signal) ([3]; PHF23, sheet "Array Heatmap", each array performed twice, total n = 4): 0.5829 | Array Heatmap value (peptide array signal) [4, 32]: 0.5306 | Array Heatmap value (peptide array signal) ([5]; TAF3, sheet "Array Heatmap", each array performed twice, total n = 4): 0.3193 | Array Heatmap value (peptide array signal) [6, 32]: 0.5172 | Array Heatmap value (peptide array signal) ([7]; PHF8, sheet "Array Heatmap", each array performed twice, total n = 4): 0.4899 | Array Heatmap value (peptide array signal) [8, 32]: 0.4006 | Array Heatmap value (peptide array signal) [9, 32]: 0.5155 | Array Heatmap value (peptide array signal) [10, 32]: 0.5087 | Array Heatmap value (peptide array signal) [11, 32]: 0.8101 | Array Heatmap value (peptide array signal) [12, 32]: 0.3833 | Array Heatmap value (peptide array signal) [13, 32]: 0.4805 | Array Heatmap value (peptide array signal) [14, 32]: 0.3697 | Array Heatmap value (peptide array signal) ([15]; ING3, sheet "Array Heatmap", each array performed twice, total n = 4): 0.5106 | Array Heatmap value (peptide array signal) ([16]; ING4, sheet "Array Heatmap", each array performed twice, total n = 4): 0.465 | Array Heatmap value (peptide array signal) ([17]; RAG2, sheet "Array Heatmap", each array performed twice, total n = 4): 0.3044 | Array Heatmap value (peptide array signal) [18, 32]: 0.5943 | Array Heatmap value (peptide array signal) ([19]; MLL5, sheet "Array Heatmap", each array performed twice, total n = 4): 0.6217 | Array Heatmap value (peptide array signal) ([20]; ING1, sheet "Array Heatmap", each array performed twice, total n = 4): 0.5841 | Array Heatmap value (peptide array signal) ([21]; ING5, sheet "Array Heatmap", each array performed twice, total n = 4): 0.3839 | Array Heatmap value (peptide array signal) [22, 32]: 0.6949 | Array Heatmap value (peptide array signal) [23, 32]: 0.6584 | Array Heatmap value (peptide array signal) ([24]; DIDO1, sheet "Array Heatmap", each array performed twice, total n = 4): 0.7285 | Array Heatmap value (peptide array signal) ([25]; ING2, sheet "Array Heatmap", each array performed twice, total n = 4): 0.6411 | Array Heatmap value (peptide array signal) [26, 32]: 0.5119 | Array Heatmap value (peptide array signal) [27, 32]: 0.6017 | Array Heatmap value (peptide array signal) [28, 32]: 0.4768 | Array Heatmap value (peptide array signal) [29, 32]: 0.5701 | Array Heatmap value (peptide array signal) ([30]; PHF13, sheet "Array Heatmap", each array performed twice, total n = 4): 0.6221 | Array Heatmap value (peptide array signal) [31, 32]: 0.5281

Array Heatmap value (peptide array binding signal) [1, 33]: 0.556 | Array Heatmap value (peptide array binding signal) ([2]; PHF2, GST-tagged, arrays performed twice, n of 4): 0.4703 | Array Heatmap value (peptide array binding signal) ([3]; PHF23, GST-tagged, arrays performed twice, n of 4): 0.4986 | Array Heatmap value (peptide array binding signal) [4, 33]: 0.4403 | Array Heatmap value (peptide array binding signal) ([5]; TAF3, GST-tagged, arrays performed twice, n of 4): 0.2353 | Array Heatmap value (peptide array binding signal) [6, 33]: 0.4295 | Array Heatmap value (peptide array binding signal) ([7]; PHF8, GST-tagged, arrays performed twice, n of 4): 0.3344 | Array Heatmap value (peptide array binding signal) [8, 33]: 0.3467 | Array Heatmap value (peptide array binding signal) [9, 33]: 0.339 | Array Heatmap value (peptide array binding signal) [10, 33]: 0.3887 | Array Heatmap value (peptide array binding signal) [11, 33]: 0.7354 | Array Heatmap value (peptide array binding signal) [12, 33]: 0.3411 | Array Heatmap value (peptide array binding signal) [13, 33]: 0.3915 | Array Heatmap value (peptide array binding signal) [14, 33]: 0.3189 | Array Heatmap value (peptide array binding signal) ([15]; ING3, GST-tagged, arrays performed twice, n of 4): 0.4524 | Array Heatmap value (peptide array binding signal) ([16]; ING4, GST-tagged, arrays performed twice, n of 4): 0.3991 | Array Heatmap value (peptide array binding signal) ([17]; RAG2, GST-tagged, arrays performed twice, n of 4): 0.2204 | Array Heatmap value (peptide array binding signal) [18, 33]: 0.5396 | Array Heatmap value (peptide array binding signal) ([19]; MLL5, GST-tagged, arrays performed twice, n of 4): 0.5006 | Array Heatmap value (peptide array binding signal) ([20]; ING1, GST-tagged, arrays performed twice, n of 4): 0.4946 | Array Heatmap value (peptide array binding signal) ([21]; ING5, GST-tagged, arrays performed twice, n of 4): 0.2996 | Array Heatmap value (peptide array binding signal) [22, 33]: 0.6034 | Array Heatmap value (peptide array binding signal) [23, 33]: 0.624 | Array Heatmap value (peptide array binding signal) ([24]; DIDO1, GST-tagged, arrays performed twice, n of 4): 0.6117 | Array Heatmap value (peptide array binding signal) ([25]; ING2, GST-tagged, arrays performed twice, n of 4): 0.5892 | Array Heatmap value (peptide array binding signal) [26, 33]: 0.3861 | Array Heatmap value (peptide array binding signal) [27, 33]: 0.4284 | Array Heatmap value (peptide array binding signal) [28, 33]: 0.3855 | Array Heatmap value (peptide array binding signal) [29, 33]: 0.4838 | Array Heatmap value (peptide array binding signal) ([30]; PHF13, GST-tagged, arrays performed twice, n of 4): 0.5558 | Array Heatmap value (peptide array binding signal) [31, 33]: 0.4159
Substance: H2A.Z (1-19) (N-ac): H2AZ 1-19 (Ac-AGGKAGKDSGKAKTKAVSR; UniProt P0C0S5 2-20, looked up, fragment)
